Patent US11345956B2, “Methods and compositions related to prostate cancer therapeutics” (The Johns Hopkins University, priority 2014, dated 2022)
Read-outs that look alike come from different tables or passages of the source.

Test system: metastatic castration-resistant prostate cancer (CRPC)
Conditions: for median overall survival (OS): preliminary survival analysis; for PSA response rate (≥50% PSA decline from baseline, maintained ≥4 weeks): all patients of the cohort; for HR for PFS, AR-V7 presence / HR for PSA-PFS, AR-V7 presence: multivariable Cox model adjusting for AR-FL expression and prior use of the alternative AR-directed agent; for HR for PFS, AR-FL levels / HR for PSA-PFS, AR-FL levels / HR for PFS, previous use of alternative AR-directed agent / HR for PSA-PFS, previous use of alternative AR-directed agent: multivariable Cox model; for HR for PFS, AR-FL levels / HR for PSA-PFS, AR-FL levels: covariate AR-FL level; for HR for PFS, previous use of alternative AR-directed agent / HR for PSA-PFS, previous use of alternative AR-directed agent: previous abiraterone (enzalutamide cohort) or previous enzalutamide (abiraterone cohort); for Hazard Ratio (HR) for PFS, variable AR-FL Level (log) / Hazard Ratio (HR) for PFS, variable AR-V7 Positive / Hazard Ratio (HR) for PFS, variable Prior use of Abiraterone / Hazard Ratio (HR) for PSA-PFS, variable AR-FL Level (log) / Hazard Ratio (HR) for PSA-PFS, variable AR-V7 Positive / Hazard Ratio (HR) for PSA-PFS, variable Prior use of Abiraterone: propensity score weighted multivariable model; for hazard ratio (HR) for OS, AR-V7-positive vs AR-V7-negative / hazard ratio (HR) for PFS, AR-V7-positive vs AR-V7-negative / hazard ratio (HR) for PSA-PFS, AR-V7-positive vs AR-V7-negative: univariate, log-rank
[1] = AR-V7-negative patients (baseline CTCs)
[2] = AR-V7-positive patients (baseline CTCs)
[3] = no previous alternative AR-directed agent (abiraterone/enzalutamide)
[4] = no previous alternative AR-directed agent (abiraterone/enzalutamide), AR-V7 [+]
[5] = no previous alternative AR-directed agent (abiraterone/enzalutamide), AR-V7 [−]
[6] = previous alternative AR-directed agent (abiraterone/enzalutamide), AR-V7 [+]
[7] = previous alternative AR-directed agent (abiraterone/enzalutamide), AR-V7 [−]
[8] = previous alternative AR-directed agent (abiraterone/enzalutamide)

Experimental: Men with metastatic CRPC who were beginning standard-of-care treatment with enzalutamide or abiraterone were prospectively enrolled. Patients were required to have histologically-confirmed prostate adenocarcinoma, progressive disease despite “castration levels” of serum testosterone (<50 ng/dL; and androgen-deprivation therapy had to continue), and radiographic metastases on computed tomography (CT) or technetium-99 bone scans. […] Patients were excluded if they planned to receive additional concurrent anticancer therapies. Prior chemotherapy was permitted, as was previous treatment with the alternative AR-directed agent (i.e. prior abiraterone use in enzalutamide-treated patients, and vice versa).
This was a prospective study evaluating the ability of baseline (pretreatment) AR-V7 status from CTCs (circulating tumor cells) to predict response or resistance to AR-directed agents.
Follow-up was prospectively defined: patients had PSA measurements every 1-2 months, as well as CT (chest/abdomen/pelvis) and technetium-99 bone scans every 2-4 months.
CTC analyses were conducted using the commercially-available ALERE™ CTC AdnaTest platform (AdnaGen, Langenhagen, Germany). Isolation and enrichment of CTCs was performed using the ProstateCancerSelect kit, and mRNA expression analyses were performed using the ProstateCancerDetect kit with multiplexed reverse-transcription polymerase-chain-reaction (qRT-PCR) primers to detect the presence of CTCs, and custom primers designed to detect the full-length-AR (AR-FL) and AR splice variant-7 (AR-V7) (Hu, R., et al. (2009) Cancer Res 69, 16-22). Relative AR-V7 transcript abundance was determined by calculating the ratio of AR-V7 to AR-FL (Hu, R., et al. (2009) Cancer Res 69, 16-22; Watson, P. A., et al. (2010) Proceedings of the National Academy of Sciences).
Best PSA response (maximal percentage PSA decrease from baseline) for each patient was also determined.
Secondary endpoints included freedom-from-PSA-progression (PSA-progression-free-survival; PSA-PFS), freedom-from-clinical/radiographic-progression (progression-free-survival; PFS), and overall survival (OS). PSA-progression was defined as a ≥25% increase in PSA from nadir (and by ≥2 ng/mL), requiring confirmation ≥4 weeks later (PCWG2 criteria) (Scher, H. I., et al. (2008) Journal of Clinical Oncology: Oficial Journal of the American Society of Clinical Oncology 26, 1148-1159).

SMILES: C[C@]12CC[C@H](O)CC1=CC[C@@H]1[C@@H]2CC[C@]2(C)C(c3cccnc3)=CC[C@@H]12 [abiraterone]
- median PSA-progression-free survival (PSA-PFS) (AR-V7-negative patients): > 5.3 months
- median clinical/radiographic progression-free survival (PFS) (AR-V7-negative patients): > 6.3 months
- PSA response rate (≥50% PSA decline from baseline) [1]: 68.0%
- median overall survival (OS) (AR-V7-negative patients): > 11.9 months
- median PSA-progression-free survival (PSA-PFS) (AR-V7-positive patients): 1.3 months
- median clinical/radiographic progression-free survival (PFS) (AR-V7-positive patients): 2.3 months
- PSA response rate (≥50% PSA decline from baseline) [2]: 0%
- median overall survival (OS) (AR-V7-positive patients): 10.6 months
- PSA response rate (≥50% PSA decline from baseline, maintained ≥4 weeks): 54.8%
- HR for PFS, AR-V7 presence: 7.6
- HR for PSA-PFS, AR-V7 presence: 15.7
- HR for PFS, AR-FL levels: 1.1
- HR for PSA-PFS, AR-FL levels: 1.0
- HR for PFS, previous use of alternative AR-directed agent: 1.9
- HR for PSA-PFS, previous use of alternative AR-directed agent: 0.9
- PFA-PFS HR, AR-V7 [+] vs [−] [3]: HR 41.0
- PFS HR, AR-V7 [+] vs [−] [3]: HR 28.2
- PSA Response [4]: 0%
- PSA Response [5]: 74%
- PSA Response [6]: 0%
- PSA Response [7]: 0%
- Hazard Ratio (HR) for PFS, variable AR-FL Level (log): 1.36
- Hazard Ratio (HR) for PFS, variable AR-V7 Positive: 5.25
- Hazard Ratio (HR) for PFS, variable Prior use of Abiraterone: 1.72
- Hazard Ratio (HR) for PSA-PFS, variable AR-FL Level (log): 1.05
- Hazard Ratio (HR) for PSA-PFS, variable AR-V7 Positive: 17.51
- Hazard Ratio (HR) for PSA-PFS, variable Prior use of Abiraterone: 0.61
- hazard ratio (HR) for OS, AR-V7-positive vs AR-V7-negative: 12.7
- hazard ratio (HR) for PFS, AR-V7-positive vs AR-V7-negative: 16.5
- hazard ratio (HR) for PSA-PFS, AR-V7-positive vs AR-V7-negative: 16.1

SMILES: CNC(=O)c1ccc(N2C(=S)N(c3ccc(C#N)c(C(F)(F)F)c3)C(=O)C2(C)C)cc1F [enzalutamide]
- median PSA-progression-free survival (PSA-PFS) (AR-V7-negative patients): 6.0 months
- median clinical/radiographic progression-free survival (PFS) (AR-V7-negative patients): 6.1 months
- PSA response rate (≥50% PSA decline from baseline) [1]: 52.6%
- median overall survival (OS) (AR-V7-negative patients): not reached
- median PSA-progression-free survival (PSA-PFS) (AR-V7-positive patients): 1.4 months
- median clinical/radiographic progression-free survival (PFS) (AR-V7-positive patients): 2.1 months
- PSA response rate (≥50% PSA decline from baseline) [2]: 0%
- median overall survival (OS) (AR-V7-positive patients): 5.5 months
- PSA response rate (≥50% PSA decline from baseline, maintained ≥4 weeks): 32.3%
- HR for PFS, AR-V7 presence: 3.0
- HR for PSA-PFS, AR-V7 presence: 3.1
- HR for PFS, AR-FL levels: 1.7
- HR for PSA-PFS, AR-FL levels: 1.4
- HR for PFS, previous use of alternative AR-directed agent: 2.6
- HR for PSA-PFS, previous use of alternative AR-directed agent: 2.5
- PSA Response [4]: 0%
- PSA Response [5]: 80%
- PFA-PFS HR, AR-V7 [+] vs [−] [8]: HR 3.34
- PFS HR, AR-V7 [+] vs [−] [8]: HR 2.93
- PSA Response [6]: 0%
- PSA Response [7]: 22%
- Hazard Ratio (HR) for PFS, variable AR-FL Level (log): 1.64
- Hazard Ratio (HR) for PFS, variable AR-V7 Positive: 3.38
- Hazard Ratio (HR) for PFS, variable Prior use of Abiraterone: 1.54
- Hazard Ratio (HR) for PSA-PFS, variable AR-FL Level (log): 1.33
- Hazard Ratio (HR) for PSA-PFS, variable AR-V7 Positive: 3.40
- Hazard Ratio (HR) for PSA-PFS, variable Prior use of Abiraterone: 2.66
- hazard ratio (HR) for OS, AR-V7-positive vs AR-V7-negative: 6.9
- hazard ratio (HR) for PFS, AR-V7-positive vs AR-V7-negative: 8.5
- hazard ratio (HR) for PSA-PFS, AR-V7-positive vs AR-V7-negative: 7.4
